Laboratory results from publication PMC5005245, “Chemical and pharmacological evaluations on the extract of Scutellaria baicalensis Georgi (Huang-Qin) prepared by various extraction methods” (SpringerPlus, 2016).

Legend:
FRAP assay = conditions: positive control, 1 mM was used; mean ± SEM (n = 3)
Procedure: The FRAP assay was performed in a 96-well plate as described (Firuzi et al. [2005]). Briefly, 5 µl of each sample was mixed with 150 µl of freshly prepared FRAP reagent (250 mM acetate buffer, pH 3.6; 8.3 mM 2,4,6-tripyridyl-s-triazine dissolved in 40 mM HCl and 16.7 mM FeCl3·6H2O solution). After incubation at 37 °C for 30 min, the absorbance of the solution was measured at 593 nm. Different concentrations of Fe^2+ standard solution were used for the construction of the standard curve, and ascorbic acid was used as the positive control.

[1] = DPPH free radicals scavenging assay; conditions: concentration of sample which scavenges 50 % of free radicals; 30 min; mean ± SEM (n = 3)
Procedure: The free radicals scavenging capacities (SC) were measured and compared using the DPPH assay (Chan et al. [2010]). Briefly, 5 µl of individual extract (0.625–10 mg/ml) was mixed with 195 μl of DPPH solution (24 mg/l) in a 96-well plate. The reaction was allowed to proceed in the dark for 30 min before the absorbance of the resultant solution was measured at 515 nm using a Micro-plate Absorbance Reader (Bio-Rad, CA, USA). Ascorbic acid (Sigma-Aldrich Chemicals Co., MO, USA) in distilled water served as the positive control. SC50 was estimated as the concentration of sample which scavenges 50 % of free radicals.

Question: For O=C1O[C@H]([C@@H](O)CO)C(O)=C1O [Ascorbic acid], which FRAP assay (FRAP assay) is on record?
Answer: 2278 ± 15 μmol Fe^2+/mg extract

Question: And the “DPPH assay (SC50)” value [1]?
Answer: 0.107 ± 0.004 mg/mL
